In the NIST ThermoML archive (doi:10.1016/j.jct.2015.09.020):

Assay: mn = molality of the nth substance listed, in mol/kg
Settings: 101.3 kPa, Liquid

Cl.NCC(=O)O [glycine hydrochloride] + O
Settings	speed of sound [m/s]
278.15 K, Frequency=2 MHz, Linear variable-path acoustic interferometer, m1 = 0.0508	1430.8
278.15 K, Frequency=2 MHz, Linear variable-path acoustic interferometer, m1 = 0.0811	1433.6
278.15 K, Frequency=2 MHz, Linear variable-path acoustic interferometer, m1 = 0.1008	1435
278.15 K, Frequency=2 MHz, Linear variable-path acoustic interferometer, m1 = 0.1202	1436.2
278.15 K, Frequency=2 MHz, Linear variable-path acoustic interferometer, m1 = 0.1499	1438.3
278.15 K, Frequency=2 MHz, Linear variable-path acoustic interferometer, m1 = 0.1801	1441.1
278.15 K, Frequency=2 MHz, Linear variable-path acoustic interferometer, m1 = 0.2112	1443.2
278.15 K, Frequency=2 MHz, Linear variable-path acoustic interferometer, m1 = 0.2325	1445.3
278.15 K, Frequency=2 MHz, Linear variable-path acoustic interferometer, m1 = 0.2472	1445.9
278.15 K, Frequency=2 MHz, Linear variable-path acoustic interferometer, m1 = 0.2732	1448
278.15 K, Frequency=2 MHz, Linear variable-path acoustic interferometer, m1 = 0.2995	1449.7
278.15 K, Frequency=2 MHz, Linear variable-path acoustic interferometer, m1 = 0.3208	1451.3
278.15 K, Frequency=2 MHz, Linear variable-path acoustic interferometer, m1 = 0.3529	1454.1
288.15 K, Frequency=3 MHz, Sing-around technique in a fixed-path interferometer, m1 = 0.05	1469.8
288.15 K, Frequency=3 MHz, Sing-around technique in a fixed-path interferometer, m1 = 0.0802	1471.7
288.15 K, Frequency=3 MHz, Sing-around technique in a fixed-path interferometer, m1 = 0.1002	1473.1
288.15 K, Frequency=3 MHz, Sing-around technique in a fixed-path interferometer, m1 = 0.1216	1474.5
288.15 K, Frequency=3 MHz, Sing-around technique in a fixed-path interferometer, m1 = 0.1506	1476.6
288.15 K, Frequency=3 MHz, Sing-around technique in a fixed-path interferometer, m1 = 0.1821	1479
288.15 K, Frequency=3 MHz, Sing-around technique in a fixed-path interferometer, m1 = 0.21	1480.8
288.15 K, Frequency=3 MHz, Sing-around technique in a fixed-path interferometer, m1 = 0.2318	1482.2
288.15 K, Frequency=3 MHz, Sing-around technique in a fixed-path interferometer, m1 = 0.2508	1483.4
288.15 K, Frequency=3 MHz, Sing-around technique in a fixed-path interferometer, m1 = 0.2723	1484.8
288.15 K, Frequency=3 MHz, Sing-around technique in a fixed-path interferometer, m1 = 0.3012	1486.4
288.15 K, Frequency=3 MHz, Sing-around technique in a fixed-path interferometer, m1 = 0.3205	1488.1
288.15 K, Frequency=3 MHz, Sing-around technique in a fixed-path interferometer, m1 = 0.3534	1489.9
298.15 K, Frequency=3 MHz, Sing-around technique in a fixed-path interferometer, m1 = 0.0515	1500
298.15 K, Frequency=3 MHz, Sing-around technique in a fixed-path interferometer, m1 = 0.0839	1502
298.15 K, Frequency=3 MHz, Sing-around technique in a fixed-path interferometer, m1 = 0.1035	1503.3
298.15 K, Frequency=3 MHz, Sing-around technique in a fixed-path interferometer, m1 = 0.1305	1504.9
298.15 K, Frequency=3 MHz, Sing-around technique in a fixed-path interferometer, m1 = 0.1453	1505.9
298.15 K, Frequency=3 MHz, Sing-around technique in a fixed-path interferometer, m1 = 0.185	1508.2
298.15 K, Frequency=3 MHz, Sing-around technique in a fixed-path interferometer, m1 = 0.2073	1509.4
298.15 K, Frequency=3 MHz, Sing-around technique in a fixed-path interferometer, m1 = 0.2401	1511.3
298.15 K, Frequency=3 MHz, Sing-around technique in a fixed-path interferometer, m1 = 0.2727	1513.2
298.15 K, Frequency=3 MHz, Sing-around technique in a fixed-path interferometer, m1 = 0.3029	1514.9
298.15 K, Frequency=3 MHz, Sing-around technique in a fixed-path interferometer, m1 = 0.3177	1515.8
298.15 K, Frequency=3 MHz, Sing-around technique in a fixed-path interferometer, m1 = 0.3535	1517.9

Settings	mass density [kg/m3]
278.15 K, Pycnometric method, m1 = 0.0508	1002.4
278.15 K, Pycnometric method, m1 = 0.0811	1003.61
278.15 K, Pycnometric method, m1 = 0.1008	1004.87
278.15 K, Pycnometric method, m1 = 0.1202	1005.41
278.15 K, Pycnometric method, m1 = 0.1499	1006.88
278.15 K, Pycnometric method, m1 = 0.1801	1008.05
278.15 K, Pycnometric method, m1 = 0.2112	1009.37
278.15 K, Pycnometric method, m1 = 0.2325	1010.42
278.15 K, Pycnometric method, m1 = 0.2472	1011.07
278.15 K, Pycnometric method, m1 = 0.2732	1012.17
278.15 K, Pycnometric method, m1 = 0.2995	1013.21
278.15 K, Pycnometric method, m1 = 0.3208	1014.01
278.15 K, Pycnometric method, m1 = 0.3529	1015.11
288.15 K, Vibrating tube method, m1 = 0.05	1001.39
288.15 K, Vibrating tube method, m1 = 0.0802	1002.72
288.15 K, Vibrating tube method, m1 = 0.1002	1003.61
288.15 K, Vibrating tube method, m1 = 0.1216	1004.54
288.15 K, Vibrating tube method, m1 = 0.1506	1005.74
288.15 K, Vibrating tube method, m1 = 0.1821	1007.14
288.15 K, Vibrating tube method, m1 = 0.21	1008.37
288.15 K, Vibrating tube method, m1 = 0.2318	1009.27
288.15 K, Vibrating tube method, m1 = 0.2508	1010.04
288.15 K, Vibrating tube method, m1 = 0.2723	1010.95
288.15 K, Vibrating tube method, m1 = 0.3012	1012.17
288.15 K, Vibrating tube method, m1 = 0.3205	1012.97
288.15 K, Vibrating tube method, m1 = 0.3534	1014.37
298.15 K, Vibrating tube method, m1 = 0.0839	1000.75
298.15 K, Vibrating tube method, m1 = 0.1035	1001.57
298.15 K, Vibrating tube method, m1 = 0.1305	1002.87
298.15 K, Vibrating tube method, m1 = 0.1453	1003.51
298.15 K, Vibrating tube method, m1 = 0.185	1005.13
298.15 K, Vibrating tube method, m1 = 0.2073	1005.96
298.15 K, Vibrating tube method, m1 = 0.2401	1007.29
298.15 K, Vibrating tube method, m1 = 0.2727	1008.59
298.15 K, Vibrating tube method, m1 = 0.3029	1009.81
298.15 K, Vibrating tube method, m1 = 0.3177	1010.44
298.15 K, Vibrating tube method, m1 = 0.3535	1011.84
